Experimental data taken from US11634390B2, “Agricultural chemicals” (GLOBACHEM NV, priority 2016, dated 2023).
Counter-ions that a name gives are not always drawn.

What was measured:
Assay type in all cases: in vivo
Stellaria media = assay: Herbicidal screen, post-emergence spray of seedlings in pots: Chickweed; settings: Stellaria media, post-emergence, 240 h, assessed 10 days after treatment, read-out: percentage increase in necrosis relative to the control
Experimental: (§1) Compounds were screened at four concentrations (100, 50, 25 and 12.5 g/ha) against four weed species (Stellaria media—Chickweed; Abutilon theophrasti—velvetleaf; Amaranthus retroflexus—common amaranthus; Echinochloa crus-galli—Barnyard grass) and maize as a crop species. Seed were sown in 12.5 cm diameter pots (20 per pot for the weed species and 5 for maize). Seedlings were sprayed with 2 ml of compound two weeks after sowing, with 2 ml water used as the control. Each treatment was replicated three times. Plants were maintained at 20° C. and assessed 10 days after treatment. The assessment was based on the % plant in each pot showing growth. The data is presented in Table 1 in which d represents no detected effect at this concentration; c represents a percentage increase in necrosis relative to the control of 0.1-50; b represents a percentage increase in necrosis of 50-80; and a represents a percentage increase in necrosis of 80-100.

Abutilon theophrasti = assay: Herbicidal screen, post-emergence spray of seedlings in pots: velvetleaf; settings: Abutilon theophrasti, post-emergence, 240 h, assessed 10 days after treatment, read-out: percentage increase in necrosis relative to the control
Experimental: as §1

Amaranthus retroflexus = assay: Herbicidal screen, post-emergence spray of seedlings in pots: common amaranthus; settings: Amaranthus retroflexus, post-emergence, 240 h, assessed 10 days after treatment, read-out: percentage increase in necrosis relative to the control
Experimental: as §1

Echinochloa crus-galli = assay: Herbicidal screen, post-emergence spray of seedlings in pots: Barnyard grass; settings: Echinochloa crus-galli, post-emergence, 240 h, assessed 10 days after treatment, read-out: percentage increase in necrosis relative to the control
Experimental: as §1

maize = assay: Herbicidal screen, post-emergence spray of seedlings in pots: crop species; settings: Zea mays, post-emergence, 240 h, assessed 10 days after treatment, read-out: percentage increase in necrosis relative to the control
Experimental: as §1

For Cn1c(C(F)(F)F)cc(=O)n(-c2cc(C(=O)NS(=O)(=O)C3CCNC3)c(Cl)cc2F)c1=O (stereo not drawn) [Example 4, 2-Chloro-4-fluoro-5-(3-methyl-2,6-dioxo-4-(trifluoromethyl)-3,6-dihydropyrimidin-1(2H)-yl)-N-(pyrrolidin-3-ylsulfonyl)benzamide hydrochloride], the pest or weed control at 12.5 g/ha (Stellaria media) was 0.1 to 50%, the pest or weed control at 25 g/ha (Stellaria media) was 0.1 to 50% and the pest or weed control at 50 g/ha (Stellaria media) was 0.1 to 50%. The pest or weed control at 100 g/ha (Stellaria media) was 50 to 80%, the pest or weed control at 12.5 g/ha (Abutilon theophrasti) was 0.1 to 50% and the pest or weed control at 25 g/ha (Abutilon theophrasti) was 0.1 to 50%. For the same molecule, the pest or weed control at 50 g/ha (Abutilon theophrasti) was 0.1 to 50%, the pest or weed control at 100 g/ha (Abutilon theophrasti) was 50 to 80% and the pest or weed control at 12.5 g/ha (Amaranthus retroflexus) was 50 to 80%. It also gave a pest or weed control at 25 g/ha (Amaranthus retroflexus) of 50 to 80%, a pest or weed control at 50 g/ha (Amaranthus retroflexus) of 80 to 100% and a pest or weed control at 100 g/ha (Amaranthus retroflexus) of 80 to 100%. For the same molecule, the pest or weed control at 12.5 g/ha (Echinochloa crus-galli) was 0.1 to 50%, the pest or weed control at 25 g/ha (Echinochloa crus-galli) was 0.1 to 50% and the pest or weed control at 50 g/ha (Echinochloa crus-galli) was 0.1 to 50%. It also gave a pest or weed control at 100 g/ha (Echinochloa crus-galli) of 0.1 to 50%, a plant injury at 12.5 g/ha (maize) of 0.1 to 50% and a plant injury at 25 g/ha (maize) of 0.1 to 50%. For the same molecule, the plant injury at 50 g/ha (maize) was 0.1 to 50% and the plant injury at 100 g/ha (maize) was 0.1 to 50%.

Cn1c(C(F)(F)F)cc(=O)n(-c2cc(C(=O)NS(=O)(=O)C3CC3)c(Cl)cc2F)c1=O [Example 12, 2-Chloro-N-(cyclopropylsulfonyl)-4-fluoro-5-(3-methyl-2,6-dioxo-4-(trifluoromethyl)-3,6-dihydropyrimidin-1(2H)-yl)benzamide] showed a pest or weed control at 12.5 g/ha (Stellaria media) of 0.1 to 50%, a pest or weed control at 25 g/ha (Stellaria media) of 0.1 to 50% and a pest or weed control at 50 g/ha (Stellaria media) of 0.1 to 50%. The pest or weed control at 100 g/ha (Stellaria media) was 0.1 to 50%, the pest or weed control at 12.5 g/ha (Abutilon theophrasti) was 0.1 to 50% and the pest or weed control at 25 g/ha (Abutilon theophrasti) was 0.1 to 50%. It also gave a pest or weed control at 50 g/ha (Abutilon theophrasti) of 0.1 to 50%, a pest or weed control at 100 g/ha (Abutilon theophrasti) of 50 to 80% and a pest or weed control at 12.5 g/ha (Amaranthus retroflexus) of 50 to 80%. It also gave a pest or weed control at 25 g/ha (Amaranthus retroflexus) of 50 to 80%, a pest or weed control at 50 g/ha (Amaranthus retroflexus) of 80 to 100% and a pest or weed control at 100 g/ha (Amaranthus retroflexus) of 80 to 100%. For the same molecule, the pest or weed control at 12.5 g/ha (Echinochloa crus-galli) was 0.1 to 50%, the pest or weed control at 25 g/ha (Echinochloa crus-galli) was 0.1 to 50% and the pest or weed control at 50 g/ha (Echinochloa crus-galli) was 0.1 to 50%. For the same molecule, the pest or weed control at 100 g/ha (Echinochloa crus-galli) was 0.1 to 50%, the plant injury at 12.5 g/ha (maize) was 0.1 to 50% and the plant injury at 25 g/ha (maize) was 0.1 to 50%. The plant injury at 50 g/ha (maize) was 0.1 to 50% and the plant injury at 100 g/ha (maize) was 0.1 to 50%.

In the case of Cn1c(C(F)(F)F)cc(=O)n(-c2cc(C(=O)NS(=O)(=O)C3CC3)c(F)cc2F)c1=O [Example 8, N-(Cyclopropylsulfonyl)-2,4-difluoro-5-(3-methyl-2,6-dioxo-4-(trifluoromethyl)-3,6-dihydropyrimidin-1(2H)-yl)benzamide], the pest or weed control at 12.5 g/ha (Stellaria media) is reported as 0.1 to 50%, the pest or weed control at 25 g/ha (Stellaria media) is reported as 0.1 to 50% and the pest or weed control at 50 g/ha (Stellaria media) is reported as 0.1 to 50%. For the same molecule, the pest or weed control at 100 g/ha (Stellaria media) was 50 to 80%, the pest or weed control at 12.5 g/ha (Abutilon theophrasti) was 0.1 to 50% and the pest or weed control at 25 g/ha (Abutilon theophrasti) was 0.1 to 50%. For the same molecule, the pest or weed control at 50 g/ha (Abutilon theophrasti) was 50 to 80%, the pest or weed control at 100 g/ha (Abutilon theophrasti) was 50 to 80% and the pest or weed control at 12.5 g/ha (Amaranthus retroflexus) was 0.1 to 50%. The pest or weed control at 25 g/ha (Amaranthus retroflexus) was 0.1 to 50%, the pest or weed control at 50 g/ha (Amaranthus retroflexus) was 80 to 100% and the pest or weed control at 100 g/ha (Amaranthus retroflexus) was 80 to 100%. The pest or weed control at 12.5 g/ha (Echinochloa crus-galli) was 0.1 to 50%, the pest or weed control at 25 g/ha (Echinochloa crus-galli) was 0.1 to 50% and the pest or weed control at 50 g/ha (Echinochloa crus-galli) was 50 to 80%. It also gave a pest or weed control at 100 g/ha (Echinochloa crus-galli) of 50 to 80%, a plant injury at 12.5 g/ha (maize) of 0.1 to 50% and a plant injury at 25 g/ha (maize) of 0.1 to 50%. For the same molecule, the plant injury at 50 g/ha (maize) was 0.1 to 50% and the plant injury at 100 g/ha (maize) was 0.1 to 50%.

For Cn1c(C(F)(F)F)cc(=O)n(-c2cc(C(=O)NS(=O)(=O)C3CCS(=O)(=O)C3)c(Cl)cc2F)c1=O (stereo not drawn) [Example 10, 2-Chloro-N-((1,1-dioxidotetrahydrothiophen-3-yl)sulfonyl)-4-fluoro-5-(3-methyl-2,6-dioxo-4-(trifluoromethyl)-3,6-dihydropyrimidin-1(2H)-yl)benzamide], the pest or weed control at 12.5 g/ha (Stellaria media) was 0.1 to 50%, the pest or weed control at 25 g/ha (Stellaria media) was 0.1 to 50% and the pest or weed control at 50 g/ha (Stellaria media) was 0.1 to 50%. For the same molecule, the pest or weed control at 100 g/ha (Stellaria media) was 0.1 to 50%, the pest or weed control at 12.5 g/ha (Abutilon theophrasti) was 0.1 to 50% and the pest or weed control at 25 g/ha (Abutilon theophrasti) was 0.1 to 50%. For the same molecule, the pest or weed control at 50 g/ha (Abutilon theophrasti) was 0.1 to 50%, the pest or weed control at 100 g/ha (Abutilon theophrasti) was 0.1 to 50% and the pest or weed control at 12.5 g/ha (Amaranthus retroflexus) was 50 to 80%. The pest or weed control at 25 g/ha (Amaranthus retroflexus) was 50 to 80%, the pest or weed control at 50 g/ha (Amaranthus retroflexus) was 50 to 80% and the pest or weed control at 100 g/ha (Amaranthus retroflexus) was 50 to 80%. The pest or weed control at 12.5 g/ha (Echinochloa crus-galli) was 0.1 to 50%, the pest or weed control at 25 g/ha (Echinochloa crus-galli) was 0.1 to 50% and the pest or weed control at 50 g/ha (Echinochloa crus-galli) was 0.1 to 50%. The pest or weed control at 100 g/ha (Echinochloa crus-galli) was 0.1 to 50%, the plant injury at 12.5 g/ha (maize) was 0.1 to 50% and the plant injury at 25 g/ha (maize) was 0.1 to 50%. For the same molecule, the plant injury at 50 g/ha (maize) was 0.1 to 50% and the plant injury at 100 g/ha (maize) was 0.1 to 50%.

With Cn1c(C(F)(F)F)cc(=O)n(-c2cc(C(=O)NS(=O)(=O)C3CNC3)c(Cl)cc2F)c1=O [Example 6, N-(Azetidin-3-ylsulfonyl)-2-chloro-4-fluoro-5-(3-methyl-2,6-dioxo-4-(trifluoromethyl)-3,6-dihydropyrimidin-1(2H)-yl)benzamide hydrochloride] the pest or weed control at 12.5 g/ha (Stellaria media) was 0.1 to 50%, the pest or weed control at 25 g/ha (Stellaria media) was 0.1 to 50% and the pest or weed control at 50 g/ha (Stellaria media) was 0.1 to 50%. It also gave a pest or weed control at 100 g/ha (Stellaria media) of 50 to 80%, a pest or weed control at 12.5 g/ha (Abutilon theophrasti) of 0.1 to 50% and a pest or weed control at 25 g/ha (Abutilon theophrasti) of 0.1 to 50%. It also gave a pest or weed control at 50 g/ha (Abutilon theophrasti) of 50 to 80%, a pest or weed control at 100 g/ha (Abutilon theophrasti) of 50 to 80% and a pest or weed control at 12.5 g/ha (Amaranthus retroflexus) of 50 to 80%. For the same molecule, the pest or weed control at 25 g/ha (Amaranthus retroflexus) was 50 to 80%, the pest or weed control at 50 g/ha (Amaranthus retroflexus) was 80 to 100% and the pest or weed control at 100 g/ha (Amaranthus retroflexus) was 80 to 100%. It also gave a pest or weed control at 12.5 g/ha (Echinochloa crus-galli) of 0.1 to 50%, a pest or weed control at 25 g/ha (Echinochloa crus-galli) of 0.1 to 50% and a pest or weed control at 50 g/ha (Echinochloa crus-galli) of 0.1 to 50%. For the same molecule, the pest or weed control at 100 g/ha (Echinochloa crus-galli) was 0.1 to 50%, the plant injury at 12.5 g/ha (maize) was 0.1 to 50% and the plant injury at 25 g/ha (maize) was 0.1 to 50%. The plant injury at 50 g/ha (maize) was 0.1 to 50% and the plant injury at 100 g/ha (maize) was 0.1 to 50%.

Cn1c(C(F)(F)F)cc(=O)n(-c2cc(C(=O)NS(=O)(=O)C3CCOCC3)c(Cl)cc2F)c1=O [Example 1, 2-Chloro-4-fluoro-5-(3-methyl-2,6-dioxo-4-(trifluoromethyl)-3,6-dihydropyrimidin-1(2H)-yl)-N-((tetrahydro-2H-pyran-4-yl)sulfonyl)benzamide] was tested, and the pest or weed control at 12.5 g/ha (Stellaria media) was 0.1 to 50%, the pest or weed control at 25 g/ha (Stellaria media) was 0.1 to 50% and the pest or weed control at 50 g/ha (Stellaria media) was 0.1 to 50%. It also gave a pest or weed control at 100 g/ha (Stellaria media) of 0.1 to 50%, a pest or weed control at 12.5 g/ha (Abutilon theophrasti) of 0.1 to 50% and a pest or weed control at 25 g/ha (Abutilon theophrasti) of 50 to 80%. It also gave a pest or weed control at 50 g/ha (Abutilon theophrasti) of 50 to 80%, a pest or weed control at 100 g/ha (Abutilon theophrasti) of 50 to 80% and a pest or weed control at 12.5 g/ha (Amaranthus retroflexus) of 0.1 to 50%. The pest or weed control at 25 g/ha (Amaranthus retroflexus) was 50 to 80%, the pest or weed control at 50 g/ha (Amaranthus retroflexus) was 50 to 80% and the pest or weed control at 100 g/ha (Amaranthus retroflexus) was 80 to 100%. The pest or weed control at 12.5 g/ha (Echinochloa crus-galli) was 0.1 to 50%, the pest or weed control at 25 g/ha (Echinochloa crus-galli) was 0.1 to 50% and the pest or weed control at 50 g/ha (Echinochloa crus-galli) was 0.1 to 50%. For the same molecule, the pest or weed control at 100 g/ha (Echinochloa crus-galli) was 0.1 to 50%, the plant injury at 12.5 g/ha (maize) was 0.1 to 50% and the plant injury at 25 g/ha (maize) was 0.1 to 50%. For the same molecule, the plant injury at 50 g/ha (maize) was 0.1 to 50% and the plant injury at 100 g/ha (maize) was 0.1 to 50%.
